Test results from ChEMBL document CHEMBL1124733, “Synthesis and cardiac electrophysiological activity of N-substituted-4-(1H-imidazol-1-yl)benzamides--new selective class III agents” (J Med Chem, 1990).
“And” between values parts separate entries of the source, which are not always exact repeats. Identical values can stand only once.

Assays:
[1] = Maximum observed percent change in Vmax and the concentration at which it was observed was determined at 100 uM; type: ADME
Canis familiaris [2] = species: Canis familiaris; assay: Maximum observed percent change in action potential duration (APD) at 95% repolarization at 100 uM using standard microelectrode technique in isolated canine cardiac Purkinje fibers; type: functional, Canis lupus familiaris, Purkinje fiber
Canis familiaris [3] = species: Canis familiaris; assay: Percent change in action potential duration at 95% repolarization and 10 uM in isolated canine cardiac Purkinje fibres.; type: functional, Canis lupus familiaris, Purkinje fiber
[4] = Maximum observed percent change in Vmax and the concentration at which it was observed was determined at 50 uM; Minimal; type: ADME
Canis familiaris [5] = species: Canis familiaris; assay: Maximum observed percent change in action potential duration (APD) at 95% repolarization at 10 uM using standard microelectrode technique in isolated canine cardiac Purkinje fibers; type: functional, Canis lupus familiaris, Purkinje fiber
Canis familiaris [6] = species: Canis familiaris; assay: Concentration which caused a 20% increase in AP95 was determined.; type: functional, Canis lupus familiaris
[7] = Percent change in the Vmax at a 10 uM concentration of the test compound; Minimal; type: ADME
Canis familiaris [8] = species: Canis familiaris; assay: Concentration which caused a 20% increase in AP95 was determined.; Not reached; type: functional; conditions: Canis lupus familiaris
[9] = Maximum observed percent change in Vmax and the concentration at which it was observed was determined at 30 uM; Minimal; type: ADME
Canis familiaris [10] = species: Canis familiaris; assay: Maximum observed percent change in action potential duration (APD) at 95% repolarization at 30 uM using standard microelectrode technique in isolated canine cardiac Purkinje fibers; type: functional, Canis lupus familiaris, Purkinje fiber
[11] = Maximum observed percent change in Vmax and the concentration at which it was observed was determined at 100 uM; Minimal; type: ADME
[12] = Percent change in the Vmax at a 10 uM concentration of the test compound; type: ADME
[13] = Maximum observed percent change in Vmax and the concentration at which it was observed was determined; Minimal; type: ADME
[14] = Maximum observed percent change in Vmax and the concentration at which it was observed was determined at 10 uM; Minimal; type: ADME
[15] = Maximum observed percent change in Vmax and the concentration at which it was observed was determined at M[30] uM; Minimal; type: ADME
Canis familiaris [16] = assay: Effective dose with the number of animals in PES efficacy model of anesthetized dog; Not effective in one animal; type: functional, Canis lupus familiaris
Canis familiaris [17] = assay: Percent change in heart rate from control at 10 mg/kg, id; type: functional, Canis lupus familiaris; conditions: route intraduodenal
Canis familiaris [18] = assay: Number of animals in which sustained ventricular tachycardia or ventricular fibrillation was not inducible after drug administration among the number of animals tested (9) in PES efficacy model of anesthetized dog; type: functional, Canis lupus familiaris, Cardiac ventricle
Canis familiaris [19] = assay: In vivo electrophysiology was given as change in Function refractory period at 30 mg/kg, id; type: functional, Canis lupus familiaris; conditions: route intraduodenal
Canis familiaris [20] = assay: In vivo electrophysiology was given as change in Function refractory period at 10 mg/kg, id; type: functional, Canis lupus familiaris; conditions: route intraduodenal
Canis familiaris [21] = assay: In vivo electrophysiology was given as change in Function refractory period at 3 mg/kg, iv; type: functional, Canis lupus familiaris
Canis familiaris [22] = assay: Effective dose with the number of animals in PES efficacy model of conscious dog; Not effective in one animal; type: functional, Canis lupus familiaris
Canis familiaris [23] = assay: Percent change in heart rate from control at 3 mg/kg, iv; type: functional, Canis lupus familiaris
Canis familiaris [24] = assay: Number of animals in which sustained ventricular tachycardia or ventricular fibrillation was not inducible after drug administration among the number of animals tested (5) in PES efficacy model of anesthetized dog; type: functional, Canis lupus familiaris, Cardiac ventricle
Canis familiaris [25] = assay: Percent change in heart rate from control at 30 mg/kg, id; type: functional, Canis lupus familiaris; conditions: route intraduodenal
[26] = Maximum observed percent change in Vmax and the concentration at which it was observed was determined at 10 uM; type: ADME
Canis familiaris [27] = species: Canis familiaris; assay: Concentration which caused a 20% increase in AP95 was determined. Lowest and highest values given in brackets; not reached; type: functional; conditions: Canis lupus familiaris
Canis familiaris [28] = species: Canis familiaris; assay: Maximum observed percent change in action potential duration (APD) at 95% repolarization at 3 uM using standard microelectrode technique in isolated canine cardiac Purkinje fibers; type: functional, Canis lupus familiaris, Purkinje fiber
Canis familiaris [29] = assay: Effective dose with the number of animals in PES efficacy model of anesthetized dog; type: functional, Canis lupus familiaris
Canis familiaris [30] = assay: Effective dose with the number of animals in PES efficacy model of conscious dog; Not effective in two animals; type: functional, Canis lupus familiaris
Canis familiaris [31] = assay: Number of animals in which sustained ventricular tachycardia or ventricular fibrillation was not inducible after drug administration among the number of animals tested (6) in PES efficacy model of anesthetized dog; type: functional, Canis lupus familiaris, Cardiac ventricle
Canis familiaris [32] = assay: Effective dose with the number of animals in PES efficacy model of conscious dog; type: functional, Canis lupus familiaris
Canis familiaris [33] = assay: Number of animals in which sustained ventricular tachycardia or ventricular fibrillation was not inducible after drug administration among the number of animals tested (4) in PES efficacy model of anesthetized dog; type: functional, Canis lupus familiaris, Cardiac ventricle
Canis familiaris [34] = species: Canis familiaris; assay: Maximum observed percent change in action potential duration (APD) at 95% repolarization at 1 uM using standard microelectrode technique in isolated canine cardiac Purkinje fibers; type: functional, Canis lupus familiaris, Purkinje fiber

SMILES	Max delta APD95 (Canis familiaris [2]) [%]	Delta APD95 (Canis familiaris [3]) [%]	Max delta APD95 (Canis familiaris [5]) [%]	C20 APD95 (Canis familiaris [6]) [µM]	Delta Vmax [7]	C20 APD95 (Canis familiaris [8])	max Delta Vmax [9]	Max delta APD95 (Canis familiaris [10]) [%]	max Delta Vmax [11]	other results
Cl.O=C(NCCNCc1ccccc1)c1ccc(-n2ccnc2)cc1	59	41	41	1.2	Minimal	–	–	–	–	max Delta Vmax [1]: -11%; max Delta Vmax [4]: Minimal
O=C(NCCN(Cc1ccccc1)Cc1ccccc1)c1ccc(-n2ccnc2)cc1	–	6	–	–	Minimal	Not reached	Minimal	6.5	–	–
CCN(CC)[C@H]1CCCCC1NC(=O)c1ccc(-n2ccnc2)cc1.Cl (stereo not given in full)	85	60	–	1.2	Minimal	–	–	–	–	Max delta [1]: -46%
CCN(CC)CCN(Cc1ccccc1)C(=O)c1ccc(-n2ccnc2)cc1	–	65	–	0.5	Minimal	–	Minimal	65	–	–
CCN1CCCC1CNC(=O)c1ccc(-n2ccnc2)cc1.Cc1ccc(S(=O)(=O)O)cc1 (stereo not given)	72	39	–	3	–	–	–	–	Minimal	max Delta Vmax [1]: -26%; Delta Vmax [12]: -13%
Cl.NCCNC(=O)c1ccc(-n2ccnc2)cc1	13	1	10	–	Minimal	Not reached	–	–	–	max Delta Vmax [13]: Minimal
CN1CCN(C(=O)c2ccc(-n3ccnc3)cc2)CC1.Cl.Cl	–	32	31	3.7	Minimal	–	Minimal	55	–	max Delta Vmax [14]: Minimal
CCN(CC)CCCNC(=O)c1ccc(-n2ccnc2)cc1.Cl.Cl	–	40	–	3	–	–	–	48	–	–
CCN(CC)CCNC(=O)c1ccc(-n2ccnc2C)cc1.CS(=O)(=O)O	16	4	13	–	Minimal	Not reached	–	–	Minimal	max Delta Vmax [15]: Minimal
CCN(CC)CCNC(=O)c1ccc(NS(C)(=O)=O)cc1.Cl [SEMATILIDE HYDROCHLORIDE]	65	31	–	4.4	Minimal	–	Minimal	51	Minimal	Effective dose (Canis familiaris [16]): 3 mg/kg; HR (Canis familiaris [17]): -17; No. effective (Canis familiaris [18]): 8; FRP (Canis familiaris [19]): 18%; FRP (Canis familiaris [20]): 15%; FRP (Canis familiaris [21]): 19%; Effective dose (Canis familiaris [22]): 10 mg/kg; HR (Canis familiaris [23]): -23; No. effective (Canis familiaris [24]): 4; HR (Canis familiaris [25]): -17
CN1CCN(S(=O)(=O)c2ccc(-n3ccnc3)cc2)CC1	–	9	24	39	Minimal	Not reached	–	14	Minimal	max Delta Vmax [26]: -23%
CCN(CC)CCNC(=O)c1cccc(-n2ccnc2)c1.Cl.Cl	–	27	50	4	Minimal	–	Minimal	60	Minimal	–
O=C(NC1CCN(Cc2ccccc2)CC1)c1ccc(-n2ccnc2)cc1	–	75	–	0.7	Minimal	–	Minimal	97	–	–
O=C(NC1CCNCC1)c1ccc(-n2ccnc2)cc1	–	5	–	–	Minimal	–	–	–	–	Max delta [9]: Minimal; C20 APD95 (Canis familiaris [27]): Not reached; Max delta APD95 (Canis familiaris [28]): 10%
CCN(CC)CCNC(=O)c1ccc(-n2ccnc2)cc1.Cl.Cl	56	34	–	2.9	Minimal	–	Minimal	52.5	Minimal	Effective dose (Canis familiaris [29]): 1 mg/kg; Effective dose (Canis familiaris [16]): 10 mg/kg; HR (Canis familiaris [17]): -15; Effective dose (Canis familiaris [30]): 3 mg/kg; No effective/ no. tested (Canis familiaris [31]): 4; FRP (Canis familiaris [19]): 19%; FRP (Canis familiaris [20]): 12%; FRP (Canis familiaris [21]): 13%; HR (Canis familiaris [23]): -18; Effective dose (Canis familiaris [32]): 0.3 mg/kg; No. effective (Canis familiaris [33]): 3; HR (Canis familiaris [25]): -29
CS(=O)(=O)O.O=C(c1ccc(-n2ccnc2)cc1)N1CCN(Cc2ccccc2)CC1	–	46	46	0.9	Minimal	–	Minimal	–	–	–
CCN(CC)CCNC(=O)c1ccc(-c2ncc[nH]2)cc1.Cl.Cl	31	7	–	65	Minimal	–	–	–	–	max Delta Vmax [1]: -14%
CCN(CC)CCN(C(=O)c1ccc(-n2ccnc2)cc1)c1cccc2ccccc12	–	28	46	0.4	–	Not reached	-31%	–	–	Max delta APD95 (Canis familiaris [34]): 39% and 18% and 24%; Delta Vmax [12]: -14%
O=C(c1ccc(-n2ccnc2)cc1)N1CCNCC1	–	17	–	10.5	Minimal	Not reached	–	28	–	Max delta [9]: Minimal
